Paper PMC6352943, “Novel pyrazolo[3,4-d]pyrimidines: design, synthesis, anticancer activity, dual EGFR/ErbB2 receptor tyrosine kinases inhibitory activity, effects on cell cycle profile and caspase-3-mediated apoptosis” (Journal of Enzyme Inhibition and Medicinal Chemistry, 2019)

Assays:
Test in all cases: NCI 60 cell line single dose screen (SRB)
Assay type in all cases: cell-based
MALME-3M = conditions: Homo sapiens; MALME-3M (melanoma), single dose 10^−5 M, 48 h; read-out: Growth inhibition percentage
Experimental: (§1) Anticancer activity screening of the newly synthesised compounds was measured in vitro utilising 60 different human tumour cell lines provided by US National Cancer Institute according to previously reported standard procedure[27–29] as follows: Cells are inoculated into 96-well microtitre plates in 100 ml. After cell inoculation, the microtitre plates are incubated at 37 °C, 5% CO2, 95% air and 100% relative humidity for 24 h prior to addition of experimental compounds. After 24 h, two plates of each cell line are fixed in situ with TCA, to represent a measurement of the cell population for each cell line at the time of drug addition (Tz). Experimental compounds are solubilised in dimethyl sulphoxide at 400-fold the desired final maximum test concentration and stored frozen prior to use. At the time of compound addition, an aliquot of frozen concentrate is thawed and diluted to twice the desired final maximum test concentration with complete medium containing […] gentamicin. Aliquots of […] of the compounds dilutions are added to the appropriate microtitre wells already containing 100 ml of medium, resulting in the required final compound concentration. Following compound addition, the plates are incubated for an additional 48 h at 37 °C, 5% CO2, 95% air, and 100% relative humidity. For adherent cells, the assay is terminated by the addition of cold trichloroacetic acid (TCA). Cells are fixed in situ by the gentle addition of 50 ml of cold 50% (w/v) TCA (final concentration, 10% TCA) and incubated for 60 min at 4 °C. The supernatant is discarded, and the plates are washed five times with tap water and air-dried. Sulphorhodamine B (SRB) solution (100 ml) at 0.4% (w/v) in 1% acetic acid is added to each well, and plates are incubated for 10 min at room temperature. After staining, unbound dye is removed by washing five times with 1% acetic acid and the plates are air-dried. Bound stain is subsequently solubilised with 10 mM trizma base, and the absorbance is read on an automated plate reader at a wavelength of 515 nm. For suspension cells, the methodology is the same except that the assay is terminated by fixing settled cells at the bottom of the wells by gently adding 50 ml of 80% TCA (final concentration, 16% TCA). Using the absorbance measurements [time zero, (Tz), control growth, (C), and test growth in the presence of compound (Ti)], the percentage growth is calculated for each compound. Percentage growth inhibition is calculated as: [(Ti – Tz)/(C – Tz)] x 100 for concentrations for which Ti >/=Tz. [(Ti – Tz)/Tz] x 100 for concentrations for which Ti < Tz.

OVCAR-4 = conditions: Homo sapiens; OVCAR-4 (ovarian cancer), single dose 10^−5 M, 48 h; read-out: Growth inhibition percentage
Experimental: as §1

NCI-H23 = conditions: Homo sapiens; NCI-H23 (non-small cell lung cancer), single dose 10^−5 M, 48 h; read-out: Growth inhibition percentage
Experimental: as §1

RPMI-8226 = conditions: Homo sapiens; RPMI-8226 (leukemia), single dose 10^−5 M, 48 h; read-out: Growth inhibition percentage
Experimental: as §1

SF-268 = conditions: Homo sapiens; SF-268 (CNS cancer), single dose 10^−5 M, 48 h; read-out: Growth inhibition percentage
Experimental: as §1

A549/ATCC = conditions: Homo sapiens; A549/ATCC (non-small cell lung cancer), single dose 10^−5 M, 48 h; read-out: Growth inhibition percentage
Experimental: as §1

HL-60(TB) = conditions: Homo sapiens; HL-60(TB) (leukemia), single dose 10^−5 M, 48 h; read-out: Growth inhibition percentage
Experimental: as §1

HCT-15 = conditions: Homo sapiens; HCT-15 (colon cancer), single dose 10^−5 M, 48 h; read-out: Growth inhibition percentage
Experimental: as §1

COLO 205 = conditions: Homo sapiens, COLO 205, 48 h; read-out: Growth inhibition percentage
Experimental: as §1

ACHN = conditions: Homo sapiens; ACHN (renal cancer), single dose 10^−5 M, 48 h; read-out: Growth inhibition percentage
Experimental: as §1

HCC-2998 = conditions: Homo sapiens; HCC-2998 (colon cancer), single dose 10^−5 M, 48 h; read-out: Growth inhibition percentage
Experimental: as §1

OVCAR-5 = conditions: Homo sapiens; OVCAR-5 (ovarian cancer), single dose 10^−5 M, 48 h; read-out: Growth inhibition percentage
Experimental: as §1

SK-MEL-2 = conditions: Homo sapiens; SK-MEL-2 (melanoma), single dose 10^−5 M, 48 h; read-out: Growth inhibition percentage
Experimental: as §1

MCF7 = conditions: Homo sapiens; MCF7 (breast cancer), single dose 10^−5 M, 48 h; read-out: Growth inhibition percentage
Experimental: as §1

M14 = conditions: Homo sapiens; M14 (melanoma), single dose 10^−5 M, 48 h; read-out: Growth inhibition percentage
Experimental: as §1

SF-295 = conditions: Homo sapiens; SF-295 (CNS cancer), single dose 10^−5 M, 48 h; read-out: Growth inhibition percentage
Experimental: as §1

HCT-116 = conditions: Homo sapiens; HCT-116 (colon cancer), single dose 10^−5 M, 48 h; read-out: Growth inhibition percentage
Experimental: as §1

SNB-19 = conditions: Homo sapiens; SNB-19 (CNS cancer), single dose 10^−5 M, 48 h; read-out: Growth inhibition percentage
Experimental: as §1

CCRF-CEM = conditions: Homo sapiens; CCRF-CEM (leukemia), single dose 10^−5 M, 48 h; read-out: Growth inhibition percentage
Experimental: as §1

PC-3 = conditions: Homo sapiens; PC-3 (prostate cancer), single dose 10^−5 M, 48 h; read-out: Growth inhibition percentage
Experimental: as §1

HS 578T = conditions: Homo sapiens; HS 578T (breast cancer), single dose 10^−5 M, 48 h; read-out: Growth inhibition percentage
Experimental: as §1

COc1ccc(N2CCN(c3ncnc4c3c(C)nn4-c3ccc(F)cc3)CC2)cc1 [Compound 8d, 1–(4-Fluorophenyl)-4–(4-(4-methoxyphenyl)piperazin-1-yl)-3-methyl-1H-pyrazolo[3,4-d]pyrimidine]
inhibition at 10 µM (MALME-3M): 5.14%
inhibition at 10 µM (OVCAR-4): -1.77%
inhibition at 10 µM (NCI-H23): 9.95%
inhibition at 10 µM (RPMI-8226): 6.45%
inhibition at 10 µM (SF-268): -2.9%
inhibition at 10 µM (A549/ATCC): -4.08%
inhibition at 10 µM (HL-60(TB)): 11.8%
inhibition at 10 µM (HCT-15): -5.55%
inhibition at 10 µM (COLO 205): -7.56%
inhibition at 10 µM (ACHN): -0.34%
inhibition at 10 µM (HCC-2998): 3.59%
inhibition at 10 µM (OVCAR-5): -7.96%
inhibition at 10 µM (SK-MEL-2): -1.69%
inhibition at 10 µM (MCF7): 1.6%
inhibition at 10 µM (M14): 3.95%
inhibition at 10 µM (SF-295): -2.4%
inhibition at 10 µM (HCT-116): 7.42%
inhibition at 10 µM (SNB-19): 2.02%
inhibition at 10 µM (CCRF-CEM): 0.86%
inhibition at 10 µM (PC-3): 12.5%
inhibition at 10 µM (HS 578T): 5.99%

Cc1nn(-c2ccc(F)cc2)c2ncnc(N3CCN(c4ccc(Cl)cc4)CC3)c12 [Compound 8c, 4–(4-(4-Chlorophenyl)piperazin-1-yl)-1–(4-fluorophenyl)-3-methyl-1H-pyrazolo[3,4-d]pyrimidine]
inhibition at 10 µM (MALME-3M): 4.22%
inhibition at 10 µM (OVCAR-4): -1.9%
inhibition at 10 µM (NCI-H23): 20.7%
inhibition at 10 µM (RPMI-8226): -8.37%
inhibition at 10 µM (SF-268): 4.51%
inhibition at 10 µM (A549/ATCC): -3.31%
inhibition at 10 µM (HL-60(TB)): 25.5%
inhibition at 10 µM (HCT-15): -8.49%
inhibition at 10 µM (COLO 205): -1.97%
inhibition at 10 µM (ACHN): 2.13%
inhibition at 10 µM (HCC-2998): 3.74%
inhibition at 10 µM (OVCAR-5): -2.91%
inhibition at 10 µM (SK-MEL-2): 9.37%
inhibition at 10 µM (MCF7): 3.1%
inhibition at 10 µM (M14): -0.94%
inhibition at 10 µM (SF-295): -0.93%
inhibition at 10 µM (HCT-116): 1.69%
inhibition at 10 µM (SNB-19): -4.77%
inhibition at 10 µM (CCRF-CEM): -8.74%
inhibition at 10 µM (PC-3): 11.3%
inhibition at 10 µM (HS 578T): 3.74%

Cc1nn(-c2ccc(F)cc2)c2ncnc(Cl)c12 [Compound 6, 4-Chloro-1–(4-fluorophenyl)-3-methyl-1H-pyrazolo[3,4-d]pyrimidine]
inhibition at 10 µM (MALME-3M): -4.3%
inhibition at 10 µM (OVCAR-4): -0.8%
inhibition at 10 µM (NCI-H23): 7.86%
inhibition at 10 µM (RPMI-8226): 2.21%
inhibition at 10 µM (SF-268): -1.16%
inhibition at 10 µM (A549/ATCC): 11.6%
inhibition at 10 µM (HL-60(TB)): 14%
inhibition at 10 µM (HCT-15): 1.32%
inhibition at 10 µM (COLO 205): -14.9%
inhibition at 10 µM (ACHN): 4.11%
inhibition at 10 µM (HCC-2998): -5.66%
inhibition at 10 µM (OVCAR-5): -12.3%
inhibition at 10 µM (SK-MEL-2): 11%
inhibition at 10 µM (MCF7): 11.6%
inhibition at 10 µM (M14): 5.89%
inhibition at 10 µM (SF-295): -4.11%
inhibition at 10 µM (HCT-116): 7.98%
inhibition at 10 µM (SNB-19): 7.79%
inhibition at 10 µM (CCRF-CEM): 1.47%
inhibition at 10 µM (PC-3): 14.8%
inhibition at 10 µM (HS 578T): 4.54%

Cc1nn(-c2ccc(F)cc2)c2ncnc(Nc3ccc(F)c(Cl)c3)c12 [Compound 7d, N-(3-Chloro-4-fluorophenyl)-1–(4-fluorophenyl)-3-methyl-1H-pyrazolo[3,4-d] pyrimidin-4-amine]
inhibition at 10 µM (MALME-3M): 1.56%
inhibition at 10 µM (OVCAR-4): 53.1%
inhibition at 10 µM (NCI-H23): 7.53%
inhibition at 10 µM (RPMI-8226): 9.77%
inhibition at 10 µM (SF-268): 3.94%
inhibition at 10 µM (A549/ATCC): 40.5%
inhibition at 10 µM (HL-60(TB)): 15%
inhibition at 10 µM (HCT-15): 2.75%
inhibition at 10 µM (COLO 205): -3.96%
inhibition at 10 µM (ACHN): 60.4%
inhibition at 10 µM (HCC-2998): 1.79%
inhibition at 10 µM (OVCAR-5): 4.92%
inhibition at 10 µM (SK-MEL-2): 2.61%
inhibition at 10 µM (MCF7): 15.7%
inhibition at 10 µM (M14): 1.01%
inhibition at 10 µM (SF-295): 40%
inhibition at 10 µM (HCT-116): 19.2%
inhibition at 10 µM (SNB-19): 20.4%
inhibition at 10 µM (CCRF-CEM): 0.7%
inhibition at 10 µM (PC-3): 17.2%
inhibition at 10 µM (HS 578T): 21.5%

Cc1nn(-c2ccc(F)cc2)c2ncnc(NN)c12 [Compound 9, 1–(4-Fluorophenyl)-4-hydrazinyl-3-methyl-1H-pyrazolo[3,4-d]-pyrimidine]
inhibition at 10 µM (MALME-3M): 19%
inhibition at 10 µM (OVCAR-4): 17.8%
inhibition at 10 µM (NCI-H23): 19.1%
inhibition at 10 µM (RPMI-8226): -6.21%
inhibition at 10 µM (SF-268): 25.6%
inhibition at 10 µM (A549/ATCC): -5.98%
inhibition at 10 µM (HL-60(TB)): 11.8%
inhibition at 10 µM (HCT-15): -5.82%
inhibition at 10 µM (COLO 205): -11.7%
inhibition at 10 µM (ACHN): 2.07%
inhibition at 10 µM (HCC-2998): 5.1%
inhibition at 10 µM (OVCAR-5): -7.64%
inhibition at 10 µM (SK-MEL-2): 18.3%
inhibition at 10 µM (MCF7): 11.5%
inhibition at 10 µM (M14): -8%
inhibition at 10 µM (SF-295): -3.92%
inhibition at 10 µM (HCT-116): 3.99%
inhibition at 10 µM (SNB-19): 11.3%
inhibition at 10 µM (CCRF-CEM): 30.9%
inhibition at 10 µM (PC-3): 13.8%
inhibition at 10 µM (HS 578T): -4.22%

COc1cc(C=NNc2ncnc3c2c(C)nn3-c2ccc(F)cc2)cc(OC)c1OC [Compound 10c, 1–(4-Fluorophenyl)-3-methyl-4–(2-(3,4,5-trimethoxybenzylidene)-hydrazinyl)-1H-pyrazolo[3,4-d]pyrimidine]
inhibition at 10 µM (MALME-3M): 12.6%
inhibition at 10 µM (OVCAR-4): -8.66%
inhibition at 10 µM (NCI-H23): 14.2%
inhibition at 10 µM (RPMI-8226): 1.29%
inhibition at 10 µM (SF-268): 6.35%
inhibition at 10 µM (A549/ATCC): -0.67%
inhibition at 10 µM (HL-60(TB)): -4.11%
inhibition at 10 µM (HCT-15): -5.3%
inhibition at 10 µM (COLO 205): -6.78%
inhibition at 10 µM (ACHN): 4.01%
inhibition at 10 µM (HCC-2998): 2.74%
inhibition at 10 µM (OVCAR-5): -11.4%
inhibition at 10 µM (SK-MEL-2): -1.74%
inhibition at 10 µM (MCF7): 1.96%
inhibition at 10 µM (M14): 2.73%
inhibition at 10 µM (SF-295): -2.66%
inhibition at 10 µM (HCT-116): 3.15%
inhibition at 10 µM (SNB-19): -4.87%
inhibition at 10 µM (CCRF-CEM): 4.81%
inhibition at 10 µM (PC-3): 16.5%
inhibition at 10 µM (HS 578T): 13.9%
